Measurements taken from US5153179A, “Medicament with improved penetration of the tissue membrane” (Max-Planck-Gesellschaft zur Foerderung der Wissenschaft e.V., priority 1983, dated 1992).
“And” between values parts separate entries of the source, which are not always exact repeats. Equal entries are not always repeated.

Test: Blood-brain barrier penetration by the method of Oldendorf (radioactively marked active material, A. carotis injection, brain radioactivity after 15 seconds)
Settings: for percentage proportion of active material which has passed the blood-brain barrier, with C5: with addition of glycerol 1-pentyl ether; for percentage proportion of active material which has passed the blood-brain barrier, with C5 / percentage proportion of active material which has passed the blood-brain barrier, with C3: about 0.3 Osmol/l; for percentage proportion of active material which has passed the blood-brain barrier, with C5 / percentage proportion of active material which has passed the blood-brain barrier, without / percentage proportion of active material which has passed the blood-brain barrier, with C3: A. carotis, 15 seconds, + dissolved in inger albumin; for percentage proportion of active material which has passed the blood-brain barrier, without: without addition of a compound of the general formula; for percentage proportion of active material which has passed the blood-brain barrier, with C3: with addition of glycerol 1-propyl ether
Experimental: The effectiveness of the medicament according to the invention was tested according to the method of Oldendorf (Brain-Res., 24, 372-376 (1970)). […] In the case of the medicament according to the invention, the administration took place into the A. carotis. 15 seconds later, the experimental animal was decapitated, the brain removed and the radioactivity bound therein determined. […] The numerical values give the percentage proportion of active material which has passed the blood-brain barrier. As comparative substance, there was employed an isotonic buffer solution. The compound of the general formula was present in iso-osmolar concentration, which corresponds to about 0.3 Osmol/ 1. in the solution administered.
In the case of the experiments according to the method of Oldendorf, the active materials were used in amounts of between 10 and 100 μmol. There was thereby obtained no dependency of the penetration percentage of the active material concentration, i.e. that with increasing amount of active material, the percentage passing the blood-brain barrier remained about the same. In the case of methotrexate as active material, the penetration was also investigated in the case of higher concentrations.
The penetration achieved also depends upon the amount of glycerol derivative of the general formula used. Referring to the results given in Table 1, e.g. with endoxan and the C3 additive, there was achieved a penetration of scarcely 20%, whereas with an equal amount of the C5 additive the penetration lay above 50%. However, if one increases the amount of the C3 derivative 2.5 fold, then the percentage penetrating also increases to about 50%.

For `O=c1[nH]cc(F)c(=O)[nH]1` [5-fluorouracil], the “percentage proportion of active material which has passed the blood-brain barrier, with C5” value (from here on “percentage proportion … with C5”) was 13.0 ± 0.1% and the “percentage proportion of active material which has passed the blood-brain barrier, without” value (from here on “percentage proportion … without”) was 3.7 ± 1.0%.
In the case of `CCCCCCCCCCCCCCCCCCOCC(COP(=O)([O-])OCC[N+](C)(C)C)OC` (centres unmarked) [ET 18-O-CH3], the “percentage proportion of active material which has passed the blood-brain barrier, with C3” value (from here on “percentage proportion … with C3”) is reported as 16.4 ± 4.1% and the “percentage proportion … without” value is reported as 4.5 ± 0.8%.
With `COc1cccc2c1C(=O)c1c(O)c3c(c(O)c1C2=O)C[C@@](O)(C(C)=O)C[C@@H]3O[C@H]1C[C@H](N)[C@H](O)[C@H](C)O1` [daunomycin] the “percentage proportion … with C5” value was 76.8 ± 7.0%, the “percentage proportion … with C3” value was 24.1 ± 3.3% and the “percentage proportion … without” value was 10.8 ± 2.7%.
For `O=P1(N(CCCl)CCCl)NCCCO1` (centres unmarked) [endoxan], the “percentage penetrating with increased amount of the C3 derivative” value (amount of the C3 derivative increased 2.5 fold) was “about 50%”, the “percentage proportion … with C3” value was 18.9 ± 0.3% and ~20% and the “percentage proportion … without” value was 11.4 ± 0.4%.
In the case of `CN(Cc1cnc2nc(N)nc(N)c2n1)c1ccc(C(=O)N[C@@H](CCC(=O)O)C(=O)O)cc1` [methotrexate], the “proportion of active material advancing to the place of action at higher concentrations” value (higher concentrations, up to above 10 mMole) is reported as “a linear increase”, the “percentage proportion of active material passing the barrier at higher concentrations” value (up to above 10 mMole) is reported as “practically the same percentage proportion of active material passing the barrier” and the “percentage proportion … with C5” value is reported as 26.2 ± 5.8%. For the same molecule, the “percentage proportion … with C3” value was 5.7 ± 1.0% and the “percentage proportion … without” value was 4.7 ± 0.6%.
With `O=C1c2c(O)ccc(O)c2C(=O)c2c(NCCNCCO)ccc(NCCNCCO)c21` [mitoxandrone] the “percentage proportion … with C5” value was 25.1 ± 2.0% and the “percentage proportion … without” value was 1.8 ± 0.1%.
For `CC[C@]1(O)C[C@@H]2CN(CCc3c([nH]c4ccccc34)[C@@](C(=O)OC)(c3cc4c(cc3OC)N(C)[C@H]3[C@@](O)(C(=O)OC)[C@H](OC(C)=O)[C@]5(CC)C=CCN6CC[C@]43[C@@H]65)C2)C1` [vinblastine], the “percentage proportion … with C5” value was 44.3 ± 6.7%, the “percentage proportion … with C3” value was 4.2 ± 0.6% and the “percentage proportion … without” value was 5.4 ± 1.7%.
With bleomycin the “penetration improvement” value (FIG. 2, M.W. above 600) was “relatively small”, the “percentage proportion … with C5” value was 5.7 ± 1.8% and the “percentage proportion … without” value was 4.9 ± 1.4%.
